Assay results taken from US20250221976A1, “COMPOUNDS, COMPOSITIONS AND METHODS OF TREATING NEUROPATHIC PAIN” (THE UNIVERSITY OF HONG KONG, priority 2024, published 2025).

What was measured:
[1] = system: spared nerve injury (SNI) rat model; assay: Von Frey test, mechanical allodynia in spared nerve injury (SNI) rats; format: in vivo; details: 50 μg/kg/day intrathecally, from 14 days post injury
Source text: (§1) The SNI surgery was constructed as previously described^16, 17. In brief, after animals were anesthetized by isoflurane (1.5-2.5%), a half centimeter incision was made in the middle of the outer. Muscles from the upper layer were bluntly dissected to expose the sciatic nerve and its branches to the left hind leg's common peroneal, tibial, and peroneal nerves. Then, the front two nerves were clipped, and the […]. In the sham-operated group, the sciatic nerve was only exposed, and no clipping or injury was done. After suturing the skin, animals were transferred to an observation box for recovery.
(§2) Intrathecal administration of vehicle or drugs was conducted by direct lumbar puncture in the L5-L6 intervertebral space with a 30-gauge needle following the method of Mestre^18. This procedure was performed under isoflurane anesthesia to permit rapid recovery of the animals. The quality of each injection was ensured by the observation of an injection-induced tail-flick.
Assessment of mechanical allodynia was using the Von Frey test as previously described^17. The animals were placed in plastic cages with metal mesh on the bottom and allowed to acclimatize for at least half an hour before each test. Each Von Frey wire was held perpendicular to the contact surface of the paw until it bent. […]

[2] = system: spared nerve injury (SNI) rat model; assay: Acetone test, cold allodynia in SNI rats; format: in vivo; details: 50 μg/kg/day intrathecally, from 14 days post injury
Source text: as §1, §2
Assessment of cold allodynia was using acetone test^20. Animals were placed in the assessment cage described above for habituation. Acetone was collected by pipette for each trial. […] As the acetone fast spread across the plantar skin and evaporated, noxious withdrawal responses of the hind paw (fluttering, licking, or hanging) against the cold stimuli was recorded. […]

[3] = system: spared nerve injury (SNI) rat model; assay: Pin test, hyperalgesia in SNI rats; format: in vivo; details: 50 μg/kg/day intrathecally, from 14 days post injury
Source text: as §1, §2
Hyperalgesia was evaluated by pin test described previously^20. […] Normal response (brief flinch) or noxious-like response (sustained elevation of the paw with licking, shaking, or grooming) was recorded in 10 repeated trials with a minimum of 10 seconds' gap. Data was expressed as percentage of noxious-like response out of 10 trials.

NRF2 = assay: Immunoblot of NRF2 expression in L4-L6 DRG of SNI rats; format: in vivo, rat; details: 50 μg/kg, DRG collected 3 h after administration, versus vehicle
Source text: as §1, §2
For western blotting, L4-6 DRGs were extracted from the ipsilateral surgery of SNI rats and stored in liquid nitrogen to be set aside. DRGs were then sheared in pre-cooled potent RIPA lysate (containing protease and phosphatase inhibitors) and their whole cell lysates were obtained by ultrasonic crushing on ice. […] Immunoreactive bands were detected by chemiluminescence.

ROS level in DRG neurons = ROS level in DRG neurons by DCFH-DA flow cytometry; format: in vivo, rat; details: SNI rats, 50 μg/kg i.th, 3 h after administration, versus vehicle
Source text: as §1
Intrathecal administration of vehicle or drugs was conducted by direct lumbar puncture in the L5-L6 intervertebral space with a 30-gauge needle following the method of Mestre^18. […]
ROS level of DRG neurons were labeled by ROS Assay Kit (Beyotime Co., Ltd., China) and detected by flow cytometry according to the manufacturer's instructions. […] However, after entering the cell, DCFH-DA is hydrolyzed by cellular esterase to generate DCFH (2′,7′-dichlorodihydrofluorescein), which is non-permeable to the cell membrane, and can be oxidized by ROS into fluorescent DCF (2′,7′-dichlorofluorescein) that can be detected by flow cytometry. The fluorescence intensity represents the intracellular ROS levels.

[4] = system: voltage-gated sodium (NaV) channels; assay: Whole-cell voltage clamp of NaV currents in small diameter DRG neurons; format: cell-based, rat; details: primary cultured small diameter (<30 μm) DRG neurons, 20 μM overnight
Description: DRG neurons were obtained from rodents by acute isolation as previously described^21, 22. After animals were euthanized, the dorsal skin was removed to perform laminectomy to expose DRG, L4-L6 DRGs were rapidly collected from the intervertebral foramen. The collected DRGs were digested in 3 mL bicarbonate-free, serum-free, sterile DMEM (cat. no. 11965; Thermo Fisher Scientific) containing a mixture of enzymes (neutral protease, 3.125 mg/mL (cat. no. LS02104; Worthington) and collagenase Type I 5 mg/mL (cat. no. LS004194; Worthington)), incubated in a shaker at 37° C. […]
(§3) Whole-cell voltage clamp recording was performed as previously described. […] Data were obtained by Patchmaster (HEKA) and analyzed with Fitmaster (HEKA). […]
(§4) NaV currents were measured from rodent DRG small diameter (<30 μm) neurons. […] This process occurs between 0 and 10 mV and can be analyzed as a function of voltage, as inferred from the peak current density (normalized to the cell capacitance (picofarad, pF)); (ii) Inactivation protocol: starting from a clamp potential of −60 mV, a hyperpolarization/depolarization pulse of 1 second in the range of −120 to 20 mV, in steps of +10 mV for 1 second. […] The Boltzmann relevant factors, similar to half-maximal activation (V50) and slope, for the single fits to the data, are calculated, summarized, and compared among groups. […]

NaV1.7 = target: T1, NaV1.7 (Homo sapiens, UniProt Q15858); assay: Whole-cell voltage clamp of NaV1.7 currents in transfected HEK293 cells; format: cell-based
T1 construct: conflicts with the methods; host or cells: HEK293
Description: HEK293 cells were purchased from Shanghai Institute of Biological Sciences, Chinese Academy of Sciences. HEK293 cells were cultured in medium (DMEM containing 10% fetal bovine serum and 1% penicillin/streptomycin) in an atmosphere of 5% CO2 at 37° C.
The NaV1.7 sequence was synthesized by GenScript (Nanjing, Jiangsu Province, China) and inserted into the pcDNA3.1 (+)-C-DYK plasmid between the BamH1 and EcoRI restriction sites. The empty plasmid of pcDNA3.1 purchased from Shenzhen Yanming Biotechnology Company was used as a mock transfection control. […]
as §3, §4

T1 sequence (Q15858 whole entry): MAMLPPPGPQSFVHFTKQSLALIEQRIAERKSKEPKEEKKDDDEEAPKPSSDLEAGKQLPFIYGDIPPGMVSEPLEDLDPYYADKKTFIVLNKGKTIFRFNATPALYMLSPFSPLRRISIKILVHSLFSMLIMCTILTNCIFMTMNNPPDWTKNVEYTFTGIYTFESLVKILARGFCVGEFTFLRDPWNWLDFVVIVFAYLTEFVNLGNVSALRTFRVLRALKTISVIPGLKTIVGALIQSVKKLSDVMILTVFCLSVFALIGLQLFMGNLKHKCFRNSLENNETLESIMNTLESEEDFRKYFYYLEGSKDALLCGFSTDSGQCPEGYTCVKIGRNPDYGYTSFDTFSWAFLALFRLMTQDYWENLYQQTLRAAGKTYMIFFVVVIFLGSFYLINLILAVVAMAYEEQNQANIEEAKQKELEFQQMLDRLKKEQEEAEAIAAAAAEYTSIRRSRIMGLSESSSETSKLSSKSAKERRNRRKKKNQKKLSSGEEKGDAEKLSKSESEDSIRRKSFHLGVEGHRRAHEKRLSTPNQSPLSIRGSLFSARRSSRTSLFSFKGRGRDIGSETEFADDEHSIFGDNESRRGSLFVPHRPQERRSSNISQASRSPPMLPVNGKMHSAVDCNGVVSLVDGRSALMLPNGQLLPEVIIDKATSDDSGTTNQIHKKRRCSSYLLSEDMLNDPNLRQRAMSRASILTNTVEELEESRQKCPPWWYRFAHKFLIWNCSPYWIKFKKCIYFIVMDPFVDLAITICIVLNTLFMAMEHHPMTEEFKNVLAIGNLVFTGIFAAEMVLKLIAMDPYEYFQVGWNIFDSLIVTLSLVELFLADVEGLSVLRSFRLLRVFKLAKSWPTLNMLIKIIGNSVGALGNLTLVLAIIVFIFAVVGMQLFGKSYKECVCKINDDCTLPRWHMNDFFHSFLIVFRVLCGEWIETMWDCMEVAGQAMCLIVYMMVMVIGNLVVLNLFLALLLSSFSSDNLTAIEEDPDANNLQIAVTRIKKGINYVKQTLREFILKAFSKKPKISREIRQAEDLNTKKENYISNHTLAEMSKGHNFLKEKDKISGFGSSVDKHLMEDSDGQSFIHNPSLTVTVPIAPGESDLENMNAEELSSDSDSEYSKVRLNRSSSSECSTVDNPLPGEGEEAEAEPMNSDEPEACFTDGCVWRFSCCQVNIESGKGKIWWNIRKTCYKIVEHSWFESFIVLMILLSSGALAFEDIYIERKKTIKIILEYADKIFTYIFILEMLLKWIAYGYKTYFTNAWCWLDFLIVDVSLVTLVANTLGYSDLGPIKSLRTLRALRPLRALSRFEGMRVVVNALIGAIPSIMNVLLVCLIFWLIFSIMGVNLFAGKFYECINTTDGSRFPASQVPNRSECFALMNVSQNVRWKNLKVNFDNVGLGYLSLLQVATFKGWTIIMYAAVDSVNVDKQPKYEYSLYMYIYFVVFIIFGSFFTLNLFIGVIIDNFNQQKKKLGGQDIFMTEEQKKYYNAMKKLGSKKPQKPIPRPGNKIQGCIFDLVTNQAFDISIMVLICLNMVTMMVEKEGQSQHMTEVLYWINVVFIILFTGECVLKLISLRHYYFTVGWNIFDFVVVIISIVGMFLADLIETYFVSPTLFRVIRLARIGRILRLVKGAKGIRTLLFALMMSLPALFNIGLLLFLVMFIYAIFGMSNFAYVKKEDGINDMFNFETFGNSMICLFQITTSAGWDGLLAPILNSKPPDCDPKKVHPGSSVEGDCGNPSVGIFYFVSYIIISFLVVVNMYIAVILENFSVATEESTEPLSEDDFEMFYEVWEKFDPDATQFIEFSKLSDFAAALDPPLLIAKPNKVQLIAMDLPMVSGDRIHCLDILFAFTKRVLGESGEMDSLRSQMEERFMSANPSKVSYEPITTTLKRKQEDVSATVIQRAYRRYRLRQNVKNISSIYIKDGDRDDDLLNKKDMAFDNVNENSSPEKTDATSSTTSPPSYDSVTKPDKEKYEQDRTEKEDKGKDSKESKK

Cc1ccc(-c2noc(-c3ccc(F)c(F)c3)n2)cn1 [Compound 1, 5-(3,4-difluorophenyl)-3-(6-methylpyridin-3-yl)-1,2,4-oxadiazole]
max inhibiting rate in mechanical allodynia [1]: about 70.0% | max inhibiting rate in cold allodynia [2]: ~35.0% | max inhibiting rate in hyperalgesia [3]: ~37.5% | expression level of NRF2 in L4-L6 DRG (NRF2): increased the expression level of NRF2 | ROS level in DRG neurons (DCF staining) (ROS level in DRG neurons): decreased | inhibition of NaV currents [4]: significant inhibition of NaV currents | inhibition of NaV1.7 current density under excessive oxidative stress (NaV1.7; HEK293 cells transfected with NaV1.7, pre-treated with H2O2 (500 μM, 20 min), then 20 μM overnight): Same inhibiting properties | inhibition of NaV1.7 current density (NaV1.7; HEK293 cells transfected with NaV1.7 plasmid, 20 μM overnight): significantly inhibited NaV1.7 current density
